One assay relates to Echinocloa crus-galli. Description: greenhouse pre-emergence herbicidal test. It counts as in vivo. As to conditions: 250 g/ha, scale 0 to 100. A digest of the protocol: (§1)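 Seeds sown in loamy sand (~3.0% humus); compounds suspended or emulsified in water, sprayed directly after sowing, pots covered until rooting. Kept at 10-25° C. or 20-35° C. by species for 2 to 4 weeks. Damage scored visually 0-100 (100 = no emergence or complete aerial destruction).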

The subject of another assay is Lolium multiflorum. Description: greenhouse pre-emergence herbicidal test. As to conditions: 250 g/ha, scale 0 to 100. It is filed as in vivo. A digest of the protocol: as §1

For the compound `Cc1ccc(COc2cccc(F)c2Nc2nc(N)nc(C(C)(C)F)n2)cc1F` [Example 56], the herbicidal activity with Echinocloa crus-galli is 95%; in the assay with Lolium multiflorum it was 100%.

Source of the values: US11992012B2, “Diaminotriazine compounds” (BASF SE, priority 2018, dated 2024).
